PMC11475281, “A Novel Liver Cancer-Selective Histone Deacetylase Inhibitor Is Effective against Hepatocellular Carcinoma and Induces Durable Responses with Immunotherapy” (ACS Pharmacology & Translational Science, 2024)

What was measured:
Assay in all cases: MTS cell viability assay, 72 h
Assay type in all cases: cell-based
[1] = tested on: Hep3B; conditions: Homo sapiens, Figure 1g, read-out: Anti-proliferation effects IC50 (μM) Hep3 B
Excerpt: (§1) We then screened STR-V-53 and all the synthesized glycosylated HDACi for their effects on the viability of three cell lines: A549 (lung adenocarcinoma), Hep-G2 (HCC), and VERO (a normal kidney epithelial cell). We used SORA and STR-V-48, a previously disclosed nonglycosylated compound, as controls.[25] […] Additionally, compound STR-V-167, the peracetylated analog of STR-V-53, largely retained the Hep-G2 selectivity of STR-V-53 (Table S2). Subsequently, we evaluated the effects of STR-V-53 on cell proliferation using a panel of human HCC cell lines (Huh-7, SK-Hep-1, and Hep3B) as well as Kupffer cells (liver resident macrophages) by MTS assay. We observed that STR-V-53 is 7- to 16-fold more cytotoxic against these HCC cell lines relative to the Kupffer cells (Figure 1g). […] Based on their weak HDAC and cell proliferation inhibition activities, we de-emphasized further evaluation of the class III compounds.
(§2) 10-017-CV), supplemented with 10% fetal bovine serum (FBS) (Corning, 35-010-CV). Hep-G2 cells were cultured in phenol red-free Minimum Essential Medium (MEM) (Corning, 17-305-CV), supplemented with 10% fetal bovine serum (FBS). SK-Hep-1 in ATCC-formulated EMEM (ATCC® 30–2003™); Huh-7 in DMEM (containing 4 mM L-glutamine and 1 g/L glucose) with […]
(§3) Kupffer Cell Media (Sekisui XenoTech, LLC, Cat. #K8700). Cells were seeded into a 96-well plate (2000 counts/100uL) for 24 h prior to treatment and then treated with various drug concentrations for 72 h. All drugs were dissolved in media with DMSO concentration maintained at 1%. The effect of compounds on cell viability was measured using the MTS assay (CellTiter 96 Aqueous One Solution and CellTiter 96 Non-Radioactive Cell Proliferation Assays, Promega, Madison, WI) as described by the manufacturer. IC50s were determined using Prism GraphPad 8. […]

[2] = tested on: Huh-7; conditions: Homo sapiens, Figure 1g, read-out: Anti-proliferation effects IC50 (μM) Huh-7
Excerpt: as §1, §2, §3

[3] = tested on: Kupffer cells (liver resident macrophages); conditions: Macrophage; Figure 1g; read-out: Anti-proliferation effects IC50 (μM) Kupffer
Excerpt: as §1, §2, §3

[4] = tested on: SK-Hep-1; conditions: Homo sapiens, SK-HEP1; Figure 1g; read-out: Anti-proliferation effects IC50 (μM) SK-Hep-1
Excerpt: as §1, §2, §3

O=C(CCCCCCn1cc(-c2ccc(O[C@H]3O[C@H](CO)[C@@H](O)[C@H](O)[C@H]3O)cc2)nn1)NO [STR-V-53]
IC50 [1]: 11.1 µM
IC50 [2]: 6.25 µM
IC50 [3]: > 100 µM
IC50 [4]: 13.9 µM
